Legend:
[1] = concanavalin A and alpha-naphthylisothiocyanate-induced; cited from earlier work
[2] = design: method as in PMID 32277364; conditions: healthy Chinese subjects, oral administration of Y101; cited from earlier work
HBV = system: HBV; design: method as in PMID 32277364, PMID 21872478, PMID 19307124, doi:10.1016/S1674-6384(15)60018-1; conditions: dose-dependent; cited from earlier work
[3] = system: lamivudine and entecavir-resistant HBV; design: method as in PMID 32277364, PMID 21872478, PMID 19307124, doi:10.1016/S1674-6384(15)60018-1; conditions: A64 cells; cited from earlier work
[4] = design: method as in PMID 32277364, PMID 29258048; conditions: healthy Chinese volunteers, phase I; cited from earlier work
hOAT1 = target: T1, hOAT1 (Homo sapiens, UniProt Q4U2R8); experiment: In vitro uptake assay in hOAT1-HEK293 cells; assay type: in vitro ADME; conditions: Y101 2.0 µM, M8 10 µM; for inhibition of the uptake of ETV in hOAT1-HEK293 cells: ETV 10 µM; for substrate of hOAT1 (uptake in hOAT1-HEK293 vs mock-HEK293 cells): PAH 10 µM
T1 construct: expressed in transfected cells; host or cells: HEK293
T1 sequence (Q4U2R8 1-563): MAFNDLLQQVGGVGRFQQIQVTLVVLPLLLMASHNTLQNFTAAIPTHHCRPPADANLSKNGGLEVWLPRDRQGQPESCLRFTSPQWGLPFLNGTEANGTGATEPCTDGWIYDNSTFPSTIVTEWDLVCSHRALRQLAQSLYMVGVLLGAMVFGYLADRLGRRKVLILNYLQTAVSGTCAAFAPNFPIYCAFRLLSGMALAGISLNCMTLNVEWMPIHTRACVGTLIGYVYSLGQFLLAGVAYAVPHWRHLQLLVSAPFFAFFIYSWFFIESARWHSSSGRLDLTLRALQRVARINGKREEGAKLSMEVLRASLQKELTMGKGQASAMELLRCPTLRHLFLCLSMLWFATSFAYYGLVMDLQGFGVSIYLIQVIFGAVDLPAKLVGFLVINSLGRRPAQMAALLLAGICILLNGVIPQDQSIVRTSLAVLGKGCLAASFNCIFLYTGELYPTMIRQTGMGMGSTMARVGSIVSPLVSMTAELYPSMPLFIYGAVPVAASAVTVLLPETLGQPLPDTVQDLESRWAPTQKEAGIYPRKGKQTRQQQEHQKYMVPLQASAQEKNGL
Description: The hOAT1-HEK293, hOAT3-HEK293 and mock cells were cultured in Dulbecco modified Eagle medium (DMEM) containing 10% fetal bovine serum (FBS) and 1% penicillin/streptomycin in an atmosphere of 5% CO2 air at 37 °C. The HEK293 cells were plated on 24-well plates at a density of 5 × 10^5 cells/well. […] Uptake assay was initiated by adding 1 mL of the transporter buffer containing Y101, M8, ETV or probe substrate. Following incubation with gentle shaking, the uptake was terminated at designated time by removing the transporter buffer and washing cells three times with 1 mL of ice-cold HBSS. Next, substrates of Y101, M8, ETV, PAH and ES in cell monolayer were released by lysing the cells with 0.3 mL of 0.1% Triton X-100 for 2 h and determined by liquid chromatography–tandem mass spectrometry (LC–MS/MS). In the time-course uptake assay, Y101 (2.0 µM) and M8 (10 µM) in the presence or absence of PRO (100 µM) were measured in hOAT1-HEK293, hOAT3-HEK293 and mock cells. The concentration-dependent uptake of M8 was determined in hOAT3-HEK293 cells, and incubation time (5 min) was optimized. The uptake of M8 (10 µM) with or without ETV was examined in hOAT3-HEK293 cells. The uptake of ETV (10 µM) with or without Y101 or M8 was also measured in hOAT1-HEK293 and hOAT3-HEK293 cells, respectively. Furthermore, PAH and ES at concentrations of 10 µM were used as positive control in hOAT1-HEK293 and hOAT3-HEK293 cells, respectively. Protein concentrations were measured by the bicinchoninic acid procedure (Solarbio, Beijing, China) using bovine serum albumin as the standard.
Biological samples were prepared as previously described. Aliquots (50 µL) of urine, plasma, kidney homogenates, or cell lysates were individually mixed with 150 µL methanol and 50 µL working solution of internal standard (acetaminophen or bestatin), followed by vortexing for 1 min and centrifuging at 13,800 g for 10 min. […] The resulting supernatant (1 µL) was subjected to LC-MS/MS for the assessment of Y101, M8, M9 and ETV, respectively. […] The concentrations of ETV, Y101, M8 and M9 were determined by an AB QTRAP 5500 LC–MS/MS System (Foster City, CA, USA) as previously described. […] Analyst1.5.2 software was used for data processing and analysis.

hOAT3 = target: T2, hOAT3 (Homo sapiens, UniProt Q8TCC7); design: expressed in transfected cells; host or cells: HEK293; method as in PMID 23313623; conditions: read-out: Km (affinity with hOAT3); cited from earlier work
T2 sequence (Q8TCC7 1-542): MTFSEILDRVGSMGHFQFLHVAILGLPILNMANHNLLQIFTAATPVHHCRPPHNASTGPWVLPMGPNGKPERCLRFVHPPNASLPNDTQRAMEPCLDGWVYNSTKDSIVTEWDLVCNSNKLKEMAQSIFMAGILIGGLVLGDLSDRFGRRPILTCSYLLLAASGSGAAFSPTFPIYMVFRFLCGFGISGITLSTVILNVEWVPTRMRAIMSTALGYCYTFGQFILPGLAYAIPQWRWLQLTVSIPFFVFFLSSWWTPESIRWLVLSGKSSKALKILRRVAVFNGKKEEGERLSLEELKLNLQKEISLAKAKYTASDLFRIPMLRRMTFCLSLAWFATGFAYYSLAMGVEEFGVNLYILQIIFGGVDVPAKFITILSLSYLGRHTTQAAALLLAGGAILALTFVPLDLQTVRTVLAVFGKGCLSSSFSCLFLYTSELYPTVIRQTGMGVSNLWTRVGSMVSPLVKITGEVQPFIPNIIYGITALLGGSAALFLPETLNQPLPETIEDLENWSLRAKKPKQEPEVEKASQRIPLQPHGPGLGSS

[5] = human, in vivo; cited from earlier work

| Compound | protective effects on induced liver injury [1] | renal excretion [2] | inhibitory effects on HBsAg and HBV-DNA replication (HBV) | activity against lamivudine and entecavir-resistant HBV replication [3] | safety and tolerability [4] | inhibition of the uptake of ETV in hOAT1-HEK293 cells (hOAT1) | substrate of hOAT1 (uptake in hOAT1-HEK293 vs mock-HEK293 cells) (hOAT1) | Km (hOAT3) [µM] | plasma concentrations [5] |
| --- | --- | --- | --- | --- | --- | --- | --- | --- | --- |
| CN(C)CCOc1ccc(C[C@H](NC(=O)c2ccccc2)C(=O)N[C@H](CO)Cc2ccccc2)cc1.Cl [Y101, N-[N-benzoyl-O-(2-dimethylaminoethyl)-l-tyrosyl]-l-phenylalaninol hydrochloride] | protective effects | 2.98 % of the dose | potent inhibitory effects | significant activity | acceptable safety and tolerability | not inhibited | not a substrate of hOAT1 or hOAT3 |  |  |
| C=C1[C@H](CO)[C@@H](O)C[C@@H]1n1cnc2c(=O)[nH]c(N)nc21 [ETV, entecavir] |  |  |  |  |  |  |  | 23 | lower than 50 nM |
| CN(C)CCOc1ccc(CC(NC(=O)c2ccccc2)C(=O)O)cc1 (stereo not drawn) [M8] |  | 27.2 % of the dose |  |  |  | not inhibited | not a substrate of hOAT1 |  |  |

Reference: publication PMC9967645, “OAT3 Participates in Drug–Drug Interaction between Bentysrepinine and Entecavir through Interactions with M8—A Metabolite of Bentysrepinine—In Rats and Humans In Vitro” (Molecules, 2023)
